# Test results from US6610535B1, “Progenitor cells and methods and uses related thereto” (ES Cell International Pte Ltd., priority 2000, dated 2003).
# “Also recorded” adds a separate entry of the source. Where two headings read alike, the source gives them in different places. Where no end group is shown, it is not given here.
# Experiments:
# Format in all cases: cell-based, rat
# NACs = experiment: Calcium imaging (Fluo-3) of glucose-induced calcium current in NACs; conditions: Fluo-3, confocal microscopy
# Protocol: Cells were then washed to remove excess dye and placed onto a heated microscope stage (Olympus) and maintained at 32° C. Fluo-3 fluorescence intensity was used as an indicator of intracellular calcium concentration and was measured with a confocal laser-scanning microscope (Olympus). The excitation wavelength was set to 488 nm (argon ion laser) and a 40×water lens was used. The same parameters for laser scanning were set for each experiment, including confocal aperture and laser intensity. The laser scanning was performed as an XYT series with an interval of 10 seconds between each scan in order to resolve glucose-induced changes in intracellular calcium. The imaging files were stored and subsequently analyzed with FLUOVIEW software (Olympus). Cells of interest were circled and the mean intensity of the circled areas was plotted over time.
# duct monolayer = experiment: Induction of non-adherent cells (NACs, floating progenitor cells) from confluent pancreatic duct monolayer culture
# duct spheres = experiment: Duct sphere differentiation after growth with added factors, immunohistochemistry; conditions: LIF in growth culture medium in addition to six growth factors
# Protocol: Ducts are dissociated into single cells by the dissociation enzyme cocktail containing 1.33 mg/ml Trypsin, 0.7 mg/ml Hyaluronidase, 0.2 mg/ml Kynerenic Acid, and 200 U/ml DNase and plated into sphere culture media (culture media containing 10 ng/ml bFGF, 20 ng/ml EGF, 40 ng/ml HGF, 8 ng/ml TGF α, 30 ng/ml IGF-I and IGF-II, 2% B27 supplements (Gibco/BRL), 8 mM HEMES, 2 mM Glutamine, 100 U/ml penicillin and 100 ug/ml streptomycin in DMEM-F12 medium). After two days in culture, the primary spheres were taken onto HTB-9 matrix in the differentiation media (5% FBS in Iscove Media containing 200 ng/ml PYY and 30 uM Forskolin) for 4 days differentiation. The cells are fixed by 1% PFA followed by IHC analysis.
# duct cultures = experiment: Immunostaining for insulin in duct cultures; conditions: FIG. 12; 48 hours in varying secretin doses
# [1] = factor added to day 5 duct monolayer, 48 hours
compound,measurement,setting,value
O=CC[C@@H](O)[C@H](O)[C@H](O)CO [2-deoxyglucose],effect on calcium current in NACs,NACs,not induced
"CCCC(=O)Nc1ncnc2c1ncn2[C@@H]1O[C@@H]2COP(=O)(O)O[C@H]2[C@H]1OC(=O)CCC [Dibutyrl cAMP, dibutyryl-cAMP, reference compound]",induction of differentiation of duct monolayer,duct monolayer; duct monolayer culture,found to induce differentiation
same,effect on NAC / floating progenitor cell generation,duct monolayer; [1],can substitute for DCE
O=C(O)CN(CCOCCOCCN(CC(=O)O)CC(=O)O)CC(=O)O [EGTA],effect on calcium current in NACs,NACs,inhibited
"CCCC(=O)[O-].[Na+] [Na-Butyrate, sodium butyrate, reference compound]",effect on NAC / floating progenitor cell generation,duct monolayer,can substitute for DCE
same,induction of differentiation of duct monolayer,duct monolayer,found to induce differentiation
CC1=NS(=O)(=O)c2cc(Cl)ccc2N1 [diazoxide],effect on calcium current in NACs,NACs,completely inhibited
CCCCNC(=O)NS(=O)(=O)c1ccc(C)cc1 [tolbutamide],effect on calcium current in NACs,NACs,activated; also recorded: stimulated a calcium current
Cholera toxin [reference compound],effect on NAC / floating progenitor cell generation,duct monolayer,majority of the activity
same,induction of differentiation of duct monolayer,duct monolayer,found to induce differentiation
"EGF: epidermal growth factor (NSDSECPLSHDGYCLHDGVCMYIEALDKYACNCVVGYIGERCQYRDLKWWELR; UniProt P01133 971-1023, looked up)",effect on NAC / floating progenitor cell generation,duct monolayer; [1],neither dexamethasone nor EGF alone had significant effects
HGF: hepatocyte growth factor,effect on NAC / floating progenitor cell generation,duct monolayer; [1],only slight effects
LIF: leukemia inhibitory factor,insulin positive cells upon differentiation,duct spheres,many fewer
same,relative amount of Somatostatin positive cells upon differentiation,duct spheres,greatly increased
TGFβ1: growth factor TGFβ1,effect on NAC / floating progenitor cell generation,duct monolayer; [1],only slight effects
"VIP: Vasoactive Intestinal Peptide (HSDAVFTDNYTRLRKQMAVKKYLNSILN-NH2; ends and bridges not checked; UniProt P01282 125-152, looked up)",increase in number of floating progenitor cells versus control,"duct monolayer; FIG. 13, 50 ng/ml, 48 hours, control 5% FCS",> 3 fold
same,optimal dosage for induction of floating progenitor cells,"duct monolayer; FIG. 13, 48 hours of treatment",50 ng/mL
same,effect on NAC / floating progenitor cell generation,duct monolayer; [1],inducing the appearance of floating progenitor cells
forskolin [reference compound],effect on NAC / floating progenitor cell generation,duct monolayer,can substitute for DCE
same,induction of differentiation of duct monolayer,duct monolayer,found to induce differentiation
insulin: hormone insulin added to culture,effect on secretin-induced induction of floating progenitor cells,"duct monolayer; FIG. 14, insulin 10 ng/ml added simultaneously with secretin 100 nM",diminished
secretin: secretin,induction of differentiation of duct monolayer,duct monolayer; duct monolayer culture,can induce differentiation
same,effect on NAC / floating progenitor cell generation,duct monolayer; [1],dose dependent increase
same,number of insulin positive cells in the monolayer,duct cultures,increases with secretin dose
